Source: patent publication US7384558B2, “Compositions capable of inhibiting reactive oxygen and carbonyl species” (Baxter International Inc., priority 2004, dated 2008)
Values joined by “and” are separate entries in the source; they are usually repeats but may differ in a detail not shown here. Identical values can stand only once.

Test: TEAC (Trolox equivalent antioxidant activity) ABTS decolorization assay
Conditions: for TEAC (Ratio % Inhibition): ratio of % inhibition of antioxidant compound / % inhibition of Trolox; for TEAC (Slope): relative to Trolox as standard, slope of % inhibition vs concentration; for antioxidant activity as compared to the Vitamin E standard compound (Trolox): Table 1, statement in words
Procedure: Tests were conducted to evaluate the antioxidant and carbonyl trapping properties of therapeutic compositions according to various embodiments of the present invention. A Trolox equivalent antioxidant activity (TEAC) test was conducted to assess the antioxidant properties as described below in greater detail.
The TEAC antioxidant activity was measured by the ABTS [2,2′-Azinobis-(3-ethylbenzothiazoline-6-sulphonic acid)] decolorization assay. In this method, a stable radical (ABTS radical cation) is formed, and the adsorption maxima is determined. See, for example, R. Ree, N. Pellegrini, A. Proteggente, A. Pannala, M. Yang and C. Rice-Evans, Antioxidant activity applying an improved ABTS radical cation decolorization assay, Free Rad. Biol. & Med., 26 (9/10), 1231-1237 (1999). The addition of antioxidant to the pre-formed radical cation reduces it to an extent and on a time-scale depending on the antioxidant activity, the concentration of the antioxidant and the duration of the reaction. Thus, the extent of reduction (decolorization) as percentage inhibition of the ABTS radical cation is determined as a function of concentration and time and calculated relative to the reactivity of Trolox as a standard under the same conditions. The TEAC value is calculated by the ratio of % of Inhibition of antioxidant compound/% Inhibition of Trolox.

Compound	TEAC (Ratio % Inhibition)	TEAC (Slope)	antioxidant activity as compared to the Vitamin E standard compound (Trolox)
Cc1c(C)c2c(c(C)c1O)CCC(C)(CCON)O2 (centres unmarked) [VE-ONH2-1, 2-(6-Hydroxy-2,5,7,8-tetramethylchroman-2-yl)-1-(aminooxy)ethane]	0.9-1.0 and 0.5-0.8	0.9(r2 = 0.9948) and 0.8(r2 = 0.9997)	–
Cc1c(C)c2c(c(C)c1O)CCC(C)(CCN1CCN(C(=O)[C@@H](N)CS)CC1)O2 (some centres unmarked) [VE-CYS-1, N-[2-(6-Hydroxy-tetramethylchroman-2-yl)ethyl]-N′-(cysteinyl)-piperazine]	1.4-1.5	1.4(r2 = 0.9997)	enhanced antioxidant activity
N-[2-(6-Hydroxy-tetramethylchroman-2-yl)ethyl]-N′-(penicillamyl)-piperazine [VE-PEN-1]	1.6-2.1	1.3(r2 = 0.9996)	enhanced antioxidant activity
